Active and inactive are the calls of the source. No cut-off for these calls is given here.
Legend:
[1] = target: T1, Peroxisome proliferator-activated receptor delta (Homo sapiens) (UniProt Q03181); experiment: Activation of human PPAR-delta LBD expressed in HEK293T cells assessed as induction of receptor activation at 1 uM incubated for 12 to 14 hrs by luciferase reporter gene assay relative to L165,041; format: cell-based; conditions: HEK-293T
T1 sequence (whole entry): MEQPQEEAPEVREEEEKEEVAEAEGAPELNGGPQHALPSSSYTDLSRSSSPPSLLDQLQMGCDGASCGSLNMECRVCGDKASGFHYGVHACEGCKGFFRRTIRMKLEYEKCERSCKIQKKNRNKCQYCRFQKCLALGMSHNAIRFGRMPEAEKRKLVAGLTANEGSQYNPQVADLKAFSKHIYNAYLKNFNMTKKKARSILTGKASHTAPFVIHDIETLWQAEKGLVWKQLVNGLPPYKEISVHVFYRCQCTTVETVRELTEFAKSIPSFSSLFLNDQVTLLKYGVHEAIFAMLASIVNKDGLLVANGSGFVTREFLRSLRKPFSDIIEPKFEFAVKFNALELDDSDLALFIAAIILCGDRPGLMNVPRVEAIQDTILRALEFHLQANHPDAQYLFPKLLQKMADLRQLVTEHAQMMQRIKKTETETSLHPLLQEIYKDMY

[2] = target: T2, Bile acid receptor (Homo sapiens) (UniProt Q96RI1); experiment: Activation of human FXR LBD expressed in HEK293T cells assessed as induction of receptor activation at 1 uM incubated for 12 to 14 hrs by luciferase reporter gene assay relative to GW4064; format: cell-based; conditions: HEK-293T
T2 sequence (whole entry): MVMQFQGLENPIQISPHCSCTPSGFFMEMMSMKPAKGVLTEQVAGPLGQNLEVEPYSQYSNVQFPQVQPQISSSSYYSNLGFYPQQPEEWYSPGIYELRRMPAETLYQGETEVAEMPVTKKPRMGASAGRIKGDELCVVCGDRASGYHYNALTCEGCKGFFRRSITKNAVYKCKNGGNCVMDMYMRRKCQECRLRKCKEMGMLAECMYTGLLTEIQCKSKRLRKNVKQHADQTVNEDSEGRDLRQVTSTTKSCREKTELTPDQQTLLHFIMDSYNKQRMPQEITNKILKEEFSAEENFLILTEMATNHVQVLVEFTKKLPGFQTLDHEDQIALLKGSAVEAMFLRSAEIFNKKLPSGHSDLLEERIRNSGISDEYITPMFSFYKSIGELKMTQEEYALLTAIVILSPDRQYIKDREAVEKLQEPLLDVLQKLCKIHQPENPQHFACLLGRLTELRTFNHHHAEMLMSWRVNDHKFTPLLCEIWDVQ

Bile acid receptor = target: T3, Bile acid receptor (Homo sapiens, UniProt Q96RI1); experiment: Activation of human FXR LBD expressed in HEK293T cells assessed as induction of receptor activation incubated for 12 to 14 hrs by luciferase reporter gene assay; format: cell-based, HEK-293T
T3 sequence (Q96RI1 whole entry): T2 sequence (whole entry)

[3] = target: T4, Peroxisome proliferator-activated receptor delta (Homo sapiens, UniProt Q03181); experiment: Activation of human PPAR-delta LBD expressed in HEK293T cells assessed as induction of receptor activation incubated for 12 to 14 hrs by luciferase reporter gene assay; format: cell-based, HEK-293T
T4 sequence (Q03181 whole entry): T1 sequence (whole entry)

[4] = target: T2, Bile acid receptor (Homo sapiens); experiment: Activation of human FXR LBD expressed in HEK293T cells assessed as induction of receptor activation at 20 uM incubated for 12 to 14 hrs by luciferase reporter gene assay; format: cell-based; conditions: HEK-293T
[5] = target: T1, Peroxisome proliferator-activated receptor delta (Homo sapiens); experiment: Activation of human PPAR-delta LBD expressed in HEK293T cells assessed as induction of receptor activation at 30 uM incubated for 12 to 14 hrs by luciferase reporter gene assay; format: cell-based; conditions: HEK-293T
[6] = Aqueous solubility in pH 8 buffer by HPLC analysis; format: physicochemical
HepG2 = experiment: Toxicity in human HepG2 cells assessed as reduction in cell viability up to 100 uM incubated for 48 hrs by WST1 assay; format: cell-based; conditions: hepg2, 48 h
[7] = target: T1, Peroxisome proliferator-activated receptor delta (Homo sapiens); experiment: Activation of human PPAR-delta LBD expressed in HEK293T cells assessed as induction of receptor activation up to 10 uM incubated for 12 to 14 hrs by luciferase reporter gene assay; format: cell-based; conditions: HEK-293T
[8] = Stability in Sprague-Dawley rat liver microsomes assessed as remaining parent compound level at 10 uM presence of NADPH regenerating system by HPLC analysis; format: ADME, Microsome; conditions: read-out: Stability
[9] = target: T2, Bile acid receptor (Homo sapiens); experiment: Activation of human FXR LBD expressed in HEK293T cells assessed as induction of receptor activation at 1 uM incubated for 12 to 14 hrs by luciferase reporter gene assay; conditions: HEK-293T
[10] = target: T2, Bile acid receptor (Homo sapiens); experiment: Activation of human FXR LBD expressed in HEK293T cells assessed as induction of receptor activation at 30 uM incubated for 12 to 14 hrs by luciferase reporter gene assay; format: cell-based; conditions: HEK-293T
[11] = target: T1, Peroxisome proliferator-activated receptor delta (Homo sapiens); experiment: Activation of human PPAR-delta LBD expressed in HEK293T cells assessed as induction of receptor activation at 20 uM incubated for 12 to 14 hrs by luciferase reporter gene assay; format: cell-based; conditions: HEK-293T
[12] = target: T1, Peroxisome proliferator-activated receptor delta (Homo sapiens); experiment: Activation of human PPAR-delta LBD expressed in HEK293T cells assessed as induction of receptor activation at 1 uM incubated for 12 to 14 hrs by luciferase reporter gene assay; format: cell-based; conditions: HEK-293T

Row | %max [1] [%] | %max [2] [%] | EC50 (Bile acid receptor) [µM] | EC50 [3] [µM] | Compound | also measured
1 | 8.7 | 11 | 31 | 0.9 | CC(C)c1onc(-c2ccccc2)c1COc1ccc(CCCC(=O)O)cc1 | 
2 |  |  | > 30 | > 30 | CC(C)c1onc(-c2ccccc2)c1COc1ccc(CCCCC(=O)O)cc1 | 
3 | 17 | 37 | 2 | 3.1 | CC(C)c1onc(-c2c(Cl)cccc2Cl)c1COc1ccc(COc2ccc(CC(=O)O)cc2)cc1 | 
4 | 15 | 37 | 1.2 | 9 | Cc1cc(NCc2ccc(OCc3c(-c4c(Cl)cccc4Cl)noc3C(C)C)cc2)ccc1CC(=O)O | 
5 |  |  |  | > 10 | CC(C)c1onc(-c2ccccc2)c1COc1ccc(CCCCCC(=O)O)cc1 | Activity [4]: inactive
6 |  | 13 | 11 |  | CC(C)c1onc(-c2ccccc2)c1COc1ccc(Oc2ccc(C(=O)O)cc2)cc1 | Activity [5]: inactive
7 |  |  |  |  | CC(C)c1onc(-c2c(Cl)cccc2Cl)c1COc1ccc(/C=C/c2cccc(C(=O)O)c2)c(Cl)c1 | solubility [6]: < 0.1 µg/mL; Activity (HepG2): Non-Toxic; Activity [7]: inactive; remaining at 10 µM [8]: 10%; Activity [9]: Active
8 |  |  |  |  | Cc1onc(-c2ccccc2)c1COc1ccc(CCCC(=O)O)cc1 | Activity [10]: inactive; Activity [5]: inactive
9 | 15 | 117 | 0.8 | 1.8 | CC(C)c1onc(-c2c(Cl)cccc2Cl)c1COc1ccc(COc2ccc(CC(=O)O)cc2)c(Cl)c1 | 
10 |  | 15 | 7.7 |  | Cc1cccc(C)c1-c1noc(C(C)C)c1COc1ccc(CCCC(=O)O)cc1 | Activity [5]: inactive
11 |  | 37 | 4.4 | > 30 | CC(C)c1onc(-c2ccccc2C(F)(F)F)c1COc1ccc(CCCC(=O)O)cc1 | 
12 | 15 | 17 | 4.7 | 7.2 | CC(C)c1onc(-c2ccccc2Cl)c1COc1ccc(COc2ccc(OCC(=O)O)cc2)cc1 | 
13 | 15 | 51 | 6 | 0.7 | CC(C)c1onc(-c2c(Cl)cccc2Cl)c1COc1ccc(CCCC(=O)O)cc1 | 
14 |  | 5.1 | 2.3 | > 30 | CC(C)c1onc(-c2ccccc2)c1COc1ccc(COc2ccc(C(=O)O)cc2)cc1 | 
15 | 15 | 29 | 1.6 | 3.6 | CC(C)c1onc(-c2c(Cl)cccc2Cl)c1COc1ccc(CNc2ccc(CC(=O)O)cc2)cc1 | 
16 |  |  |  |  | CC(C)c1onc(-c2ccccc2Cl)c1COc1ccc(COc2ccc(C(C)(C)C(=O)O)cc2)cc1 | Activity [11]: inactive; Activity [4]: inactive
17 | 9 | 16 | 3.8 | 0.8 | CC(C)c1onc(-c2ccccc2Cl)c1COc1ccc(CCCC(=O)O)cc1 | 
18 |  |  |  |  | CCCc1c(OCCCOc2ccc(OCC(=O)O)cc2)ccc(C(C)=O)c1O | Activity [12]: Active
19 | 23 | 9 | 2.5 | 2 | CC(C)c1onc(-c2ccccc2Cl)c1COc1ccc(COc2ccc(CC(=O)O)cc2)cc1 | 
20 | 32 |  |  | 11 | CC(C)c1onc(-c2ccccc2)c1COc1ccc(COc2ccc(CCC(=O)O)cc2)cc1 | Activity [4]: inactive
21 | 54 | 11 | 11 | 4.3 | CC(C)c1onc(-c2ccccc2)c1COc1ccc(COc2ccc(CC(=O)O)cc2)cc1 | 
22 |  |  |  | > 30 | CC(C)c1onc(-c2ccccc2)c1COc1ccc(COc2cccc(C(=O)O)c2)cc1 | Activity [10]: inactive
